Values of other authors in patent publication US8455021B2, “Composition for prophylaxis or treatment of urinary system infection and method thereof” (priority 2006, dated 2013).

Assays:
[1] = tested on: MMP-2; settings: Yu Cai et al., J pharm Pharmacol. 2003
[2] = biological target: MMP-9 (Homo sapiens, UniProt P14780); settings: Yu Cai et al., J pharm Pharmacol. 2003
MMP-9, sequence (P14780 94-707, species assumed): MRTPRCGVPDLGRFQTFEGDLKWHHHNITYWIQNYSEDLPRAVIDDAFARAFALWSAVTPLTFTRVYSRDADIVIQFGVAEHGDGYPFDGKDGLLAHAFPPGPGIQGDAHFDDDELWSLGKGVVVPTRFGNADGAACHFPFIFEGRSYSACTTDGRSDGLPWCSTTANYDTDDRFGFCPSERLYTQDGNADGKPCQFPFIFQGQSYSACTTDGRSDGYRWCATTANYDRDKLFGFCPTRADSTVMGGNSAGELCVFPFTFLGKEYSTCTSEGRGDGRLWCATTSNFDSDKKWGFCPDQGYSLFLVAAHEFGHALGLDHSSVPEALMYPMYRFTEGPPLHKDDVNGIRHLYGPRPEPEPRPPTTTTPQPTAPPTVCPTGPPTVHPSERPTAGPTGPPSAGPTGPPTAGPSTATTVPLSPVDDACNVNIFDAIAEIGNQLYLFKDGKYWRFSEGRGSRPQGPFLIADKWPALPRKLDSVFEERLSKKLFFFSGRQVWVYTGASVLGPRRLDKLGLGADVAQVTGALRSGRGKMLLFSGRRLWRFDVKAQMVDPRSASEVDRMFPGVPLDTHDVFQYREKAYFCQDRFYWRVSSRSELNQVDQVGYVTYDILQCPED

For C[C@@H]1O[C@@H](O[C@H]2C(=O)c3c(O)cc(O)cc3O[C@@H]2c2ccc(O)c(O)c2)[C@H](O)[C@H](O)[C@H]1O [astilbin], the “activity of matrix metalloproteinase MMP-2” value [1] is listed as “inhibits the activity” and the “activity of matrix metalloproteinase MMP-9” value [2] is listed as “inhibits the activity”.
